Tests used:
[1] = test system: NK cells & K562 leukemia cells; assay: NK cells alone or in co-culture with K562 leukemia cells: IFN-gamma, TNF-alpha, granzyme, CD25+CD69+; assay type: cell-based, human; conditions: for production of IFN-gamma and TNF-alpha: NK cells in co-culture with K562 leukemia cells; for enhancement of IFN-gamma and TNF-alpha production: NK cells in the absence of tumor cells
Protocol: Isolated PBMCs, NK cells or CD8 positive cells were plated in Xvivo medium at 1.5*10^5 cells per in 96 well culture plates in the presence of 0.3*10^4 tumor cells where indicated. Cytokine secretion was determined by ELISA, immune cell activation (using Beckman-Coulter Abs CD25-PC5, CD69-PC7), cell viability and numbers by flow cytometry (Beckman-Coulter FC500 or Gallios) using 7-AAD exclusion as criterion for living cells. One of the physiological functions of NK cells in anti-tumor immunity is the recognition and destruction of tumor cells that have a low expression of MHC-molecules, thus avoiding recognition by CD8 T cells. Downregulation of MHC molecules is often actively mediated by an infecting virus or occurs during development of malignant neoplasms. The […] leukemia cell line expresses only very low amounts of MHC-molecules and thus is often used as a model system to investigate anti-tumor NK cell reactivity. NK cells were isolated from PBMCs and were incubated with and without compounds, either alone or in co-culture with K562 leukemia cells.

[2] = test system: K562 leukemia cells; assay: Living tumor cells (K562) in the presence of NK cells; assay type: cell-based, human
Protocol: Isolated PBMCs, NK cells or CD8 positive cells were plated in Xvivo medium at 1.5*10^5 cells per in 96 well culture plates in the presence of 0.3*10^4 tumor cells where indicated. Cytokine secretion was determined by ELISA, immune cell activation (using Beckman-Coulter Abs CD25-PC5, CD69-PC7), cell viability and numbers by flow cytometry (Beckman-Coulter FC500 or Gallios) using 7-AAD exclusion as criterion for living cells. NK cells were isolated from PBMCs and were incubated with and without compounds, either alone or in co-culture with K562 leukemia cells.

CC(C)NC(=O)c1cc2c(cc1F)S(=O)(=O)C[C@H](N)C(=O)N2Cc1ccc(Cl)cc1.Cl [Example 77, (3R)-3-amino-5-[(4-chlorophenyl)methyl]-8-fluoro-1,1,4-trioxo-N-(propan-2-yl)-2,3,4,5-tetrahydro-1λ^6,5-benzothiazepine-7-carboxamide hydrochloride]
IFN-gamma [ng/ml] Avg ([1]; 0.03 μM, NK cells & K562): 2.20 ng/mL
TNF-alpha [ng/ml] avg ([1]; 0.03 μM, NK cells & K562): 0.08 ng/mL
IFN-gamma [ng/ml] Avg ([1]; 0.03 μM, NK cells only): below
TNF-alpha [ng/ml] avg ([1]; 0.03 μM, NK cells only): below
IFN-gamma [ng/ml] Avg ([1]; 0.1 μM, NK cells & K562): 2.38 ng/mL
TNF-alpha [ng/ml] avg ([1]; 0.1 μM, NK cells & K562): 0.11 ng/mL
IFN-gamma [ng/ml] Avg ([1]; 0.1 μM, NK cells only): below
TNF-alpha [ng/ml] avg ([1]; 0.1 μM, NK cells only): below
IFN-gamma [ng/ml] Avg ([1]; 0.3 μM, NK cells & K562): 6.06 ng/mL
TNF-alpha [ng/ml] avg ([1]; 0.3 μM, NK cells & K562): 0.19 ng/mL
IFN-gamma [ng/ml] Avg ([1]; 0.3 μM, NK cells only): below
TNF-alpha [ng/ml] avg ([1]; 0.3 μM, NK cells only): below
IFN-gamma [ng/ml] Avg ([1]; 1 μM, NK cells & K562): 11.75 ng/mL
TNF-alpha [ng/ml] avg ([1]; 1 μM, NK cells & K562): 0.34 ng/mL
IFN-gamma [ng/ml] Avg ([1]; 1 μM, NK cells only): below
TNF-alpha [ng/ml] avg ([1]; 1 μM, NK cells only): below
IFN-gamma [ng/ml] Avg ([1]; 3 μM, NK cells & K562): 12.11 ng/mL
TNF-alpha [ng/ml] avg ([1]; 3 μM, NK cells & K562): 0.47 ng/mL
IFN-gamma [ng/ml] Avg ([1]; 3 μM, NK cells only): below
TNF-alpha [ng/ml] avg ([1]; 3 μM, NK cells only): below
IFN-gamma [ng/ml] Avg ([1]; 10 μM, NK cells & K562): 17.15 ng/mL
TNF-alpha [ng/ml] avg ([1]; 10 μM, NK cells & K562): 0.57 ng/mL
IFN-gamma [ng/ml] Avg ([1]; 10 μM, NK cells only): below
TNF-alpha [ng/ml] avg ([1]; 10 μM, NK cells only): below
IFN-gamma [ng/ml] Avg ([1]; 30 μM, NK cells & K562): 19.12 ng/mL
TNF-alpha [ng/ml] avg ([1]; 30 μM, NK cells & K562): 0.70 ng/mL
IFN-gamma [ng/ml] Avg ([1]; 30 μM, NK cells only): below
TNF-alpha [ng/ml] avg ([1]; 30 μM, NK cells only): below
CD25+CD69+ ([1]; NK cells & K562, 0.03 μM): 1.77 % gated
Granzyme ([1]; NK cells & K562, 0.03 μM): 0.48 ng/mL
CD25+CD69+ ([1]; NK cells & K562, 0.1 μM): 2.29 % gated
Granzyme ([1]; NK cells & K562, 0.1 μM): 0.52 ng/mL
CD25+CD69+ ([1]; NK cells & K562, 0.3 μM): 4.44 % gated
Granzyme ([1]; NK cells & K562, 0.3 μM): 0.68 ng/mL
CD25+CD69+ ([1]; NK cells & K562, 1 μM): 10.74 % gated
Granzyme ([1]; NK cells & K562, 1 μM): 0.90 ng/mL
CD25+CD69+ ([1]; NK cells & K562, 3 μM): 13.55 % gated
Granzyme ([1]; NK cells & K562, 3 μM): 1.15 ng/mL
CD25+CD69+ ([1]; NK cells & K562, 10 μM): 17.81 % gated
Granzyme ([1]; NK cells & K562, 10 μM): 1.41 ng/mL
CD25+CD69+ ([1]; NK cells & K562, 30 μM): 25.06 % gated
Granzyme ([1]; NK cells & K562, 30 μM): 2.12 ng/mL
production of IFN-gamma and TNF-alpha [1]: enhanced production of both cytokines specifically upon tumor cell contact
enhancement of IFN-gamma and TNF-alpha production [1]: such effect was not detected in the absence of tumor cells
CD25+CD69+ ([1]; NK cells only, 0.03 μM): 0.01 % gated
Granzyme ([1]; NK cells only, 0.03 μM): 0.08 ng/mL
CD25+CD69+ ([1]; NK cells only, 0.1 μM): 0.02 % gated
Granzyme ([1]; NK cells only, 0.1 μM): 0.06 ng/mL
CD25+CD69+ ([1]; NK cells only, 0.3 μM): 0.05 % gated
Granzyme ([1]; NK cells only, 0.3 μM): 0.08 ng/mL
CD25+CD69+ ([1]; NK cells only, 1 μM): 0.15 % gated
Granzyme ([1]; NK cells only, 1 μM): 0.05 ng/mL
CD25+CD69+ ([1]; NK cells only, 3 μM): 0.24 % gated
Granzyme ([1]; NK cells only, 3 μM): 0.05 ng/mL
CD25+CD69+ ([1]; NK cells only, 10 μM): 0.46 % gated
Granzyme ([1]; NK cells only, 10 μM): 0.10 ng/mL
CD25+CD69+ ([1]; NK cells only, 30 μM): 0.95 % gated
Granzyme ([1]; NK cells only, 30 μM): 0.16 ng/mL
Living tumor cells ([2]; K562 only, 0.3 μM): 31786.33
Living tumor cells ([2]; K562 only, 3 μM): 21495.00
Living tumor cells ([2]; K562 only, 30 μM): 22503.00
Living tumor cells ([2]; NK cells & K562, 0.01 μM): 696.00
Living tumor cells ([2]; NK cells & K562, 0.03 μM): 636.00
Living tumor cells ([2]; NK cells & K562, 0.1 μM): 567.00
Living tumor cells ([2]; NK cells & K562, 0.3 μM): 589.00
Living tumor cells ([2]; NK cells & K562, 1 μM): 520.33
Living tumor cells ([2]; NK cells & K562, 3 μM): 406.33
Living tumor cells ([2]; NK cells & K562, 10 μM): 398.33
Living tumor cells ([2]; NK cells & K562, 30 μM): 408.33

CCCCNC(=O)c1ccc2c(c1)N(Cc1ccc(OC(F)(F)F)cc1)C(=O)[C@@H](N)CS2(=O)=O.Cl [Example 67, (3R)-3-amino-N-butyl-1,1,4-trioxo-5-{[4-(trifluoromethoxy)phenyl]methyl}-2,3,4,5-tetrahydro-1λ^6,5-benzothiazepine-7-carboxamide hydrochloride]
IFN-gamma [ng/ml] Avg ([1]; 0.03 μM, NK cells & K562): 7.47 ng/mL
TNF-alpha [ng/ml] avg ([1]; 0.03 μM, NK cells & K562): 0.21 ng/mL
IFN-gamma [ng/ml] Avg ([1]; 0.03 μM, NK cells only): below
TNF-alpha [ng/ml] avg ([1]; 0.03 μM, NK cells only): below
IFN-gamma [ng/ml] Avg ([1]; 0.1 μM, NK cells & K562): 10.14 ng/mL
TNF-alpha [ng/ml] avg ([1]; 0.1 μM, NK cells & K562): 0.26 ng/mL
IFN-gamma [ng/ml] Avg ([1]; 0.1 μM, NK cells only): below
TNF-alpha [ng/ml] avg ([1]; 0.1 μM, NK cells only): below
IFN-gamma [ng/ml] Avg ([1]; 0.3 μM, NK cells & K562): 11.24 ng/mL
TNF-alpha [ng/ml] avg ([1]; 0.3 μM, NK cells & K562): 0.33 ng/mL
IFN-gamma [ng/ml] Avg ([1]; 0.3 μM, NK cells only): below
TNF-alpha [ng/ml] avg ([1]; 0.3 μM, NK cells only): below
IFN-gamma [ng/ml] Avg ([1]; 1 μM, NK cells & K562): 16.40 ng/mL
TNF-alpha [ng/ml] avg ([1]; 1 μM, NK cells & K562): 0.57 ng/mL
IFN-gamma [ng/ml] Avg ([1]; 1 μM, NK cells only): below
TNF-alpha [ng/ml] avg ([1]; 1 μM, NK cells only): below
IFN-gamma [ng/ml] Avg ([1]; 3 μM, NK cells & K562): 17.80 ng/mL
TNF-alpha [ng/ml] avg ([1]; 3 μM, NK cells & K562): 0.58 ng/mL
IFN-gamma [ng/ml] Avg ([1]; 3 μM, NK cells only): below
TNF-alpha [ng/ml] avg ([1]; 3 μM, NK cells only): below
IFN-gamma [ng/ml] Avg ([1]; 10 μM, NK cells & K562): 22.65 ng/mL
TNF-alpha [ng/ml] avg ([1]; 10 μM, NK cells & K562): 0.80 ng/mL
IFN-gamma [ng/ml] Avg ([1]; 10 μM, NK cells only): below
TNF-alpha [ng/ml] avg ([1]; 10 μM, NK cells only): below
IFN-gamma [ng/ml] Avg ([1]; 30 μM, NK cells & K562): 19.98 ng/mL
TNF-alpha [ng/ml] avg ([1]; 30 μM, NK cells & K562): 0.79 ng/mL
IFN-gamma [ng/ml] Avg ([1]; 30 μM, NK cells only): below
TNF-alpha [ng/ml] avg ([1]; 30 μM, NK cells only): below
CD25+CD69+ ([1]; NK cells & K562, 0.03 μM): 6.90 % gated
Granzyme ([1]; NK cells & K562, 0.03 μM): 0.65 ng/mL
CD25+CD69+ ([1]; NK cells & K562, 0.1 μM): 8.44 % gated
Granzyme ([1]; NK cells & K562, 0.1 μM): 0.93 ng/mL
CD25+CD69+ ([1]; NK cells & K562, 0.3 μM): 9.68 % gated
Granzyme ([1]; NK cells & K562, 0.3 μM): 1.01 ng/mL
CD25+CD69+ ([1]; NK cells & K562, 1 μM): 18.80 % gated
Granzyme ([1]; NK cells & K562, 1 μM): 1.47 ng/mL
CD25+CD69+ ([1]; NK cells & K562, 3 μM): 21.66 % gated
Granzyme ([1]; NK cells & K562, 3 μM): 1.62 ng/mL
CD25+CD69+ ([1]; NK cells & K562, 10 μM): 31.98 % gated
Granzyme ([1]; NK cells & K562, 10 μM): 2.52 ng/mL
CD25+CD69+ ([1]; NK cells & K562, 30 μM): 35.89 % gated
Granzyme ([1]; NK cells & K562, 30 μM): 2.43 ng/mL
production of IFN-gamma and TNF-alpha [1]: enhanced production of both cytokines specifically upon tumor cell contact
enhancement of IFN-gamma and TNF-alpha production [1]: such effect was not detected in the absence of tumor cells
CD25+CD69+ ([1]; NK cells only, 0.03 μM): 0.05 % gated
Granzyme ([1]; NK cells only, 0.03 μM): 0.08 ng/mL
CD25+CD69+ ([1]; NK cells only, 0.1 μM): 0.06 % gated
Granzyme ([1]; NK cells only, 0.1 μM): 0.09 ng/mL
CD25+CD69+ ([1]; NK cells only, 0.3 μM): 0.15 % gated
Granzyme ([1]; NK cells only, 0.3 μM): 0.08 ng/mL
CD25+CD69+ ([1]; NK cells only, 1 μM): 0.39 % gated
Granzyme ([1]; NK cells only, 1 μM): 0.06 ng/mL
CD25+CD69+ ([1]; NK cells only, 3 μM): 0.47 % gated
Granzyme ([1]; NK cells only, 3 μM): 0.12 ng/mL
CD25+CD69+ ([1]; NK cells only, 10 μM): 0.95 % gated
Granzyme ([1]; NK cells only, 10 μM): 0.15 ng/mL
CD25+CD69+ ([1]; NK cells only, 30 μM): 1.24 % gated
Granzyme ([1]; NK cells only, 30 μM): 0.25 ng/mL
Living tumor cells ([2]; K562 only, 0.3 μM): 22199.00
Living tumor cells ([2]; K562 only, 3 μM): 20750.33
Living tumor cells ([2]; K562 only, 30 μM): 22719.33
Living tumor cells ([2]; NK cells & K562, 0.01 μM): 709.00
Living tumor cells ([2]; NK cells & K562, 0.03 μM): 779.67
Living tumor cells ([2]; NK cells & K562, 0.1 μM): 712.67
Living tumor cells ([2]; NK cells & K562, 0.3 μM): 676.00
Living tumor cells ([2]; NK cells & K562, 1 μM): 623.33
Living tumor cells ([2]; NK cells & K562, 3 μM): 620.33
Living tumor cells ([2]; NK cells & K562, 10 μM): 611.67
Living tumor cells ([2]; NK cells & K562, 30 μM): 632.00
